Assay results taken from PubChem BioAssay AID328 (DTP/NCI, 2004).
“And” between values parts separate entries of the source, which are not always exact repeats. Identical values can stand only once. Toxic doses and inconclusive results are not listed. The calls were made as follows: active = survival T/C of 150% or more; inactive = T/C below 125% in these data.

Test system: BDF1 mice, P388 leukemia ip, median survival T/C
Test: NCI In Vivo Anticancer Drug Screen. Data for tumor model P388 Leukemia (intraperitoneal) in B6D2F1 (BDF1) mice
Conditions: endpoint: median survival time, higher = longer survival
Summary of the method: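 Read-out is survival of treated animals expressed relative to the vehicle group, as a T/C ratio.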

[1] = dose: 25.0 mg/kg/injection, schedule: Q04DX003 (ip), vehicle: Klucel (hydroxypropylcellulose) (HPC)
[2] = dose: 50.0 mg/kg/injection, schedule: Q04DX003 (ip), vehicle: Klucel (hydroxypropylcellulose) (HPC)
[3] = dose: 100.0 mg/kg/injection, schedule: Q01DX009 (ip), vehicle: Klucel (hydroxypropylcellulose) (HPC)
[4] = dose: 100.0 mg/kg/injection, schedule: Q04DX003 (ip), vehicle: Klucel (hydroxypropylcellulose) (HPC)
[5] = dose: 200.0 mg/kg/injection, schedule: Q04DX003 (ip), vehicle: Klucel (hydroxypropylcellulose) (HPC)
[6] = dose: 400.0 mg/kg/injection, schedule: Q04DX003 (ip), vehicle: Klucel (hydroxypropylcellulose) (HPC)
[7] = dose: 200.0 mg/kg/injection, schedule: Q01DX009 (ip), vehicle: Klucel (hydroxypropylcellulose) (HPC)
[8] = dose: 400.0 mg/kg/injection, schedule: Q01DX009 (ip), vehicle: Klucel (hydroxypropylcellulose) (HPC)
[9] = dose: 200.0 mg/kg/injection, schedule: Q04DX003 (ip), vehicle: saline with Tween-80
[10] = dose: 400.0 mg/kg/injection, schedule: Q04DX003 (ip), vehicle: saline with Tween-80
[11] = dose: 12.5 mg/kg/injection, schedule: Q01DX009 (ip), vehicle: saline with Tween-80
[12] = dose: 25.0 mg/kg/injection, schedule: Q01DX009 (ip), vehicle: saline with Tween-80
[13] = dose: 100.0 mg/kg/injection, schedule: Q04DX003 (ip), vehicle: saline with Tween-80

Measured: T/C

CC(C)=NNC(=O)C1CCN1C(c1ccccc1)c1ccccc1 (stereo not drawn)
inactive: dose: 50.0 mg/kg/injection, schedule: Q01DX001 (ip), vehicle: saline with Tween-80 117 % of control | dose: 100.0 mg/kg/injection, schedule: Q01DX001 (ip), vehicle: saline with Tween-80 102 % of control

CC(C)C1C(C)N1C(C)C (stereo not drawn)
inactive: dose: 25.0 mg/kg/injection, schedule: Q01DX009 (ip), vehicle: Klucel (hydroxypropylcellulose) (HPC) 100 % of control | [1] 100 % of control | dose: 50.0 mg/kg/injection, schedule: Q01DX009 (ip), vehicle: Klucel (hydroxypropylcellulose) (HPC) 100 % of control | [2] 100 % of control | [3] 95 % of control | [4] 104 % of control

COC(=O)c1ccc(-c2ccccc2)cc1
inactive: [1] 98 % of control | [2] 95 % of control | [4] 94 % of control | [5] 101 % of control | [6] 100 % of control

CS(=O)(=O)OCC(O)C(O)C(O)C(O)COS(C)(=O)=O (stereo not drawn)
inactive: dose: 25.0 mg/kg/injection, schedule: Q01DX010 (ip), vehicle: saline 108 % of control | dose: 50.0 mg/kg/injection, schedule: Q01DX010 (ip), vehicle: saline 116 % of control

O=[N+]([O-])c1cc(Br)c(N2CCCC2)cc1N1CCCC1
inactive: [3] 104 % of control | [4] 100 % of control | [7] 100 % of control | [5] 95 % of control | [8] 100 % of control | [6] 110 % of control

CCOc1ccc2nc(/C=C\c3cc4c5c(c3)CCCN5CCC4)ccc2c1
inactive: [3] 90 % of control | [4] 100 % of control | [7] 109 % of control | [5] 100 % of control | [8] 104 % of control | [6] 95 % of control

Cc1ccc(/C=C2\NC(=O)NC2=O)cc1
inactive: dose: 25.0 mg/kg/injection, schedule: Q01DX009 (ip), vehicle: water 106 % of control | dose: 50.0 mg/kg/injection, schedule: Q01DX009 (ip), vehicle: water 106 % of control | dose: 50.0 mg/kg/injection, schedule: Q04DX003 (ip), vehicle: water 94 % of control | dose: 100.0 mg/kg/injection, schedule: Q01DX009 (ip), vehicle: water 95 % of control | dose: 100.0 mg/kg/injection, schedule: Q04DX003 (ip), vehicle: water 106 % of control | dose: 200.0 mg/kg/injection, schedule: Q01DX009 (ip), vehicle: water 98 % of control | dose: 200.0 mg/kg/injection, schedule: Q04DX003 (ip), vehicle: water 103 % of control | dose: 400.0 mg/kg/injection, schedule: Q01DX009 (ip), vehicle: water 94 % of control | dose: 400.0 mg/kg/injection, schedule: Q04DX003 (ip), vehicle: water 97 % of control

Cc1c(Cl)cc(Cl)c(N)c1Cl
inactive: [9] 100 % of control | [10] 100 % of control

O=C(O)C1CC(c2ccccc2)OC1=O (stereo not drawn)
inactive: dose: 100.0 mg/kg/injection, schedule: Q01DX009 (ip), vehicle: gum acacia 92 % of control | dose: 100.0 mg/kg/injection, schedule: Q04DX003 (ip), vehicle: gum acacia 100 % of control | dose: 200.0 mg/kg/injection, schedule: Q01DX009 (ip), vehicle: gum acacia 92 % of control | dose: 200.0 mg/kg/injection, schedule: Q04DX003 (ip), vehicle: gum acacia 104 % of control | dose: 400.0 mg/kg/injection, schedule: Q04DX003 (ip), vehicle: gum acacia 108 % of control

CCCCCCCCCCCCCCCC(=O)OCc1cc(=O)c(O)co1
inactive: [3] 118 % of control | [4] 104 % of control | [7] 109 % of control | [5] 104 % of control | [8] 95 % of control | [6] 113 % of control

O=C(OCC1OC(n2cnc3c(=O)[nH]c(=O)[nH]c32)C(OC(=O)c2ccccc2)C1OC(=O)c1ccccc1)c1ccccc1 (stereo not drawn)
inactive: dose: 50.0 mg/kg/injection, schedule: Q01DX010 (ip), vehicle: saline with Tween-80 100 % of control | dose: 100.0 mg/kg/injection, schedule: Q01DX010 (ip), vehicle: saline with Tween-80 90 % of control | dose: 200.0 mg/kg/injection, schedule: Q01DX010 (ip), vehicle: saline with Tween-80 90 % of control | dose: 400.0 mg/kg/injection, schedule: Q01DX010 (ip), vehicle: saline with Tween-80 90 % of control

CC1=C(/C=C/C(C)=C/C=C/C(C)=C/C(=O)O)C(C)(C)CCC1
inactive: dose: 6.25 mg/kg/injection, schedule: Q01DX009 (ip), vehicle: saline with Tween-80 95 % of control | [11] 104 % of control | [12] 104 % of control

O=C(O)c1cc(-c2ccccc2)[nH]c1-c1ccccc1
inactive: dose: 50.0 mg/kg/injection, schedule: Q01DX009 (ip), vehicle: saline 90 % of control

CC1CN(N)CC(C)N1Cc1ccccc1 (stereo not drawn)
inactive: dose: 3.12 mg/kg/injection, schedule: Q04DX003 (ip), vehicle: water 98 % of control | dose: 6.25 mg/kg/injection, schedule: Q04DX003 (ip), vehicle: water 104 % of control | dose: 12.5 mg/kg/injection, schedule: Q04DX003 (ip), vehicle: water 108 % of control | dose: 25.0 mg/kg/injection, schedule: Q04DX003 (ip), vehicle: water 113 % of control

COC1=CC(=O)c2c(O)cc(OC)c(O)c2C1=O
inactive: dose: 2.5 mg/kg/injection, schedule: Q01DX009 (ip), vehicle: saline with Tween-80 104 % of control | dose: 5.0 mg/kg/injection, schedule: Q01DX009 (ip), vehicle: saline with Tween-80 113 % of control

NC(=S)N/N=C\c1ccc(/C=N/NC(N)=S)cc1
inactive: dose: 25.0 mg/kg/injection, schedule: Q04DX003 (ip), vehicle: saline with Tween-80 111 % of control | dose: 50.0 mg/kg/injection, schedule: Q04DX003 (ip), vehicle: saline with Tween-80 108 % of control | [13] 100 % of control

CCC(C)C(NC(=O)C(Cc1ccc(O)cc1)NC(=O)C(N)C(C)C)C(=O)NC(Cc1cnc[nH]1)C(=O)N1CCCC1C(=O)NC(Cc1ccccc1)C(=O)OC (stereo not drawn)
inactive: dose: 50.0 mg/kg/injection, schedule: Q01DX005 (ip), vehicle: saline with Tween-80 101 % of control | dose: 100.0 mg/kg/injection, schedule: Q01DX005 (ip), vehicle: saline with Tween-80 90 % of control | dose: 200.0 mg/kg/injection, schedule: Q01DX005 (ip), vehicle: saline with Tween-80 90 % of control

CCCC1(C)NC(=O)NC1=O (stereo not drawn)
inactive: [13] 104 % of control | [9] 113 % of control | [10] 90 % of control

CCCCCCCCCCCCCCCC[N+](C)(C)c1nc(Cl)nc(Cl)n1
inactive: dose: 7.5 mg/kg/injection, schedule: Q01DX009 (ip), vehicle: saline 110 % of control | dose: 7.5 mg/kg/injection, schedule: Q04DX003 (ip), vehicle: saline 109 % of control | dose: 15.0 mg/kg/injection, schedule: Q01DX009 (ip), vehicle: saline 105 % of control | dose: 15.0 mg/kg/injection, schedule: Q04DX003 (ip), vehicle: saline 113 % of control | dose: 30.0 mg/kg/injection, schedule: Q01DX009 (ip), vehicle: saline 105 % of control | dose: 30.0 mg/kg/injection, schedule: Q04DX003 (ip), vehicle: saline 109 % of control | dose: 60.0 mg/kg/injection, schedule: Q04DX003 (ip), vehicle: saline 118 % of control

CN(C)C(=O)C(=O)C1C=Cc2ccccc21 (stereo not drawn)
inactive: dose: 100.0 mg/kg/injection, schedule: Q01DX001 (ip), vehicle: Klucel (hydroxypropylcellulose) (HPC) 100 % of control | [4] 100 % of control | dose: 200.0 mg/kg/injection, schedule: Q01DX001 (ip), vehicle: Klucel (hydroxypropylcellulose) (HPC) 95 % of control | [5] 104 % of control | dose: 400.0 mg/kg/injection, schedule: Q01DX001 (ip), vehicle: Klucel (hydroxypropylcellulose) (HPC) 90 % of control | [6] 104 % of control

Cc1ccc2c(=O)n3cccc3c(=O)[nH]c2c1O
inactive: [13] 103 % of control | [9] 100 % of control | [10] 96 % of control

CC(C)(C)NCCC(O)c1cc2c(Cl)cc(Cl)cc2c2cc(C(F)(F)F)ccc12 (stereo not drawn)
inactive: [11] 90 % of control | [12] 106 % of control | dose: 50.0 mg/kg/injection, schedule: Q01DX009 (ip), vehicle: saline with Tween-80 108 % of control and 114 % of control

CCCCCCCCCCCCO[P+](=O)OCCCCCCCCCCCC
inactive: dose: 200.0 mg/kg/injection, schedule: Q04DX003 (ip), vehicle: saline sonified 100 % of control | dose: 400.0 mg/kg/injection, schedule: Q04DX003 (ip), vehicle: saline sonified 100 % of control
